Values of other authors, collected in US7105170B2, “Latent human tuberculosis model, diagnostic antigens, and methods of use” (The United States of America as represented by the …, priority 2001, dated 2006).

System: M. tuberculosis bacilli
Settings: non-replicating persistent lower oxygen state (NRP2)

Row | Structure (SMILES) | alterations in drug susceptibility
1 | O=C(O)c1cn(C2CC2)c2cc(N3CCNCC3)c(F)cc2c1=O [ciprofloxicin] | resistant
2 | Cc1ncc([N+](=O)[O-])n1CCO [metronidazole] | sensitive
